Experimental data from patent EP4610267A1, “CYCLIC DINUCLEOTIDES AND CONJUGATES THEREOF WITH ANTIBODIES” (priority 2024, dated 2025).

Legend:
Settings in all cases: digitonin permeabilised 293T reporter cells
[1] = test system: STING Q; test: 293T STING digitonin reporter assay (Q haplotype); assay type: cell-based, human
Experimental: (§1) Digitonin Assay with 293T Reporter Cells. The generation of 293T reporter cells stably expressing different STING protein haplotypes (WT, HAQ, REF, AQ, or Q) was described previously (Novotna et al, J. Med. Chem. 2019,62, 10676). The cells were seeded at a density of 250 000 cells per cm^2 into 96 well white poly(D-lysine) coated plates in 100 µL of DMEM with high glucose supplemented with 10% heat inactivated FBS. Next day, the medium was removed, and compounds were added in 3-fold serial dilutions in a digitonin buffer containing 50 mM HEPES (pH 7.0), 100 mM KCl, 3 mM MgClz, 0.1 mM DTT, 85 mM sucrose, 0.2% (w/w) BSA, 1 mM ATP, 0.1 mM GTP, and 10 µg/mL digitonin A. After 30 min incubation at 37 °C with 5% CO2, the digitonin buffer was removed, cells were washed once with 100 µL of the cultivation medium, and 100 µL of fresh medium was added to each well. The plates with cells were further incubated for 5 h at 37 °C with 5% CO2. Thereafter, 50 µL of the medium was removed, and 30 µL of Bright-Glo Luciferase Assay System reagent was added to each well. […] Nonlinear regression curve fit with standard slope was used for EC50 value calculations. The EC50 value represents CDN concentration that gives half-maximal response of firefly luciferase in the 293T reporter assay.

[2] = target: T1, STING AQ (Homo sapiens, UniProt Q86WV6, G230A/H232R/R293Q); test: 293T STING digitonin reporter assay (AQ haplotype); assay type: cell-based
T1 construct: expressed in transfected cells
Experimental: as §1

[3] = target: T2, STING HAQ (Homo sapiens, UniProt Q86WV6, G230A/H232R/R293Q/R71H); test: 293T STING digitonin reporter assay (HAQ haplotype); assay type: cell-based
T2 construct: expressed in transfected cells
Experimental: as §1

[4] = target: T3, STING WT (Homo sapiens, UniProt Q86WV6, H232R); test: 293T STING digitonin reporter assay (WT haplotype); assay type: cell-based
T3 construct: expressed in transfected cells
Experimental: as §1

[5] = target: T4, STING REF (Homo sapiens, UniProt Q86WV6); test: 293T STING digitonin reporter assay (REF haplotype); assay type: cell-based
T4 construct: expressed in transfected cells
Experimental: as §1

T1 sequence (Q86WV6 whole entry G230A/H232R/R293Q): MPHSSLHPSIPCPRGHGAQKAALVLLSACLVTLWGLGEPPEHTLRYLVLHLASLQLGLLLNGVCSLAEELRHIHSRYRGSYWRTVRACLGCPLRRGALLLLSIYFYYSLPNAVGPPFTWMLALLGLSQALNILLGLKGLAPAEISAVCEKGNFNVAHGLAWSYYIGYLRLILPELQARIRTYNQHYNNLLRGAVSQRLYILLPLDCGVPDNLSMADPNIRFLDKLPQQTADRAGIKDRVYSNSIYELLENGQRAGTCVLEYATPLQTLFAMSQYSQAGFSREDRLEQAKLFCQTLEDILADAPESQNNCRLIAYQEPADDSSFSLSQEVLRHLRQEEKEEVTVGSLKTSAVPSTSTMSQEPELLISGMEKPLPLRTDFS
T2 sequence (Q86WV6 whole entry R71H/G230A/H232R/R293Q): as the sequence (Q86WV6 whole entry G230A/H232R/R293Q) above, with R71H counted along it
T3 sequence (Q86WV6 whole entry H232R): as the sequence (Q86WV6 whole entry G230A/H232R/R293Q) above, with A230G, Q293R counted along it
T4 sequence (Q86WV6 whole entry): as the sequence (Q86WV6 whole entry G230A/H232R/R293Q) above, with A230G, R232H, Q293R counted along it

With Nc1ncnc2c1ncn2[C@@H]1O[C@@H]2OCP(=O)(S)O[C@@H]3[C@H](F)[C@@H](COP(=O)(S)OC[C@H]2[C@H]1F)O[C@H]3n1cnc2c(=O)[nH]cnc21 (single isomer, unassigned) [Compound 2.1] the EC50 [1] was 0.35 µM, the EC50 [2] was 0.18 µM and the EC50 [3] was 0.18 µM. For the same molecule, the EC50 [4] was 0.03 µM and the EC50 [5] was 0.14 µM.
